In data set [1] the test system is coronary blood flow. In words: Volume rate of the coronary blood flow in anesthetized cats, intravenous. Type of data set: in vivo. Conditions: for Effective period / Increase in coronary blood flow: intravenous.
For data set [2], the system named is coronary blood flow. Conditions: prior-art compound, in words; cited from earlier work.
The conditions of data set [3]: prior-art compound, in words; cited from earlier work.
Data set [4] relates to arterial blood pressure of anesthetized cats. Briefly: Reduction of arterial blood pressure by 30 percent (ED30) in anesthetized cats. To be noted: for ED30: Felis catus, read-out: ED30 (effective dose that reduces arterial blood pressure by 30 percent). The format is in vivo.
Data set [5] relates to spontaneously hypertensive rats. Briefly: Systolic arterial pressure in awake spontaneously hypertensive female rats of the Okamoto-Aoki line, intragastric. The format is in vivo. Conditions: for Hypotensive effect, %, upon administration to spontaneously hypertensive rats: into the stomach. As to the method:
Investigation of the pharmacological action of 2,6-dimethyl-3,5-dicarbomethoxy-4-(o-difluoromethylthiophenyl)-1,4-dihydropyridine upon parameters characterizing the performance of the cardiovascular system has been carried out in anesthetized cats, as well as in rats.
In the conditions as stated above, the proposed compound exceeded the SKF-24260 compound approximately 3 times with respect to both hypotensive activity and active period (see Table 1).
24 hours after administration of the proposed compound in a dose of 10 mg/kg, the systolic arterial pressure was down by a further 21.4±2.7%.

Data set [6] is described as follows: Acute toxicity in breedless white mice, intraperitoneal. Type of data set: in vivo. Conditions: mouse, in vivo, ip; intraperitoneal administration to white mice. The source says:
(§1) In experiments carried out in breedless white mice, the proposed compound, administered intraperitoneally, has been investigated for acute toxicity.

Data set [7] relates to white mice. The description is as above. The format is in vivo. To be noted: in words.
Description: as §1

Another data set is described as follows: Light stability. Type of data set: physicochemical. To be noted: in words.
A short description of the next data set: Solubility. Type of data set: physicochemical.
For data set [8], the system named is arterial blood pressure of anesthetized cats. Conditions: prior-art compound, in words; cited from earlier work.
Data set [9] relates to white mice. To be noted: prior-art compound, in words; cited from earlier work.

Structures are written as SMILES. “And” between values parts separate entries of the source, which are not always exact repeats. Equal values may be shown once. “Also recorded” adds a separate entry of the source. Read-outs that look alike come from different tables or passages of the source.

Take `COC(=O)C1=C(C)NC(C)=C(C(=O)OC)C1c1ccccc1[N+](=O)[O-]` [Adalate, 2,6-dimethyl-3,5-dicarbomethoxy-4-(o-nitrophenyl)-1,4-dihydropyridine, reference compound]: in the data set with coronary blood flow [1] (0.05 mg/kg), the Effective period is reported as 35 min and the “Increase in coronary blood flow” value was 90%. Further, the Coronarodilating activity result in the data set with coronary blood flow [2] is on record as “high coronarodilating activity”. In addition, in [3], the Sensitivity to light result is on record as “highly sensitive to light, decomposing rapidly in the presence of light”.
What is called LD50 is the dose at which mortality reaches 50%. The low end stands for greater toxicity, the high end for lower toxicity. As to `COC(=O)C1=C(C)NC(C)=C(C(=O)OC)C1c1ccccc1SC(F)F` [Proposed compound, 2,6-dimethyl-3,5-dicarbomethoxy-4-(o-difluoromethylthiophenyl)-1,4-dihydropyridine], the ED30 in data set [4] stood at 0.019 mg/kg. In [4] (acute experiments, 50% aqueous dimethylacetamide, in words), the “Hypotensive effect compared with SKF-24260” value is recorded as “same hypotensive effect”. Further, in data set [5] (1 mg/kg and 10 mg/kg into the stomach, in words), the Systolic arterial pressure result was “dropped considerably”. Besides, the “Hypotensive effect, %, upon administration to spontaneously hypertensive rats” value (from here on “Hypotensive effect, %”) in data set [5] (after 6 hours, 1 mg/kg) is 19.5%; in data set [5] (after 6 hours, 10 mg/kg), 54.8%; in data set [5] (after 24 hours, 10 mg/kg, 10 mg/kg) it was 21.4±2.7% and 21.4%. Also, the “Duration of hypotensive activity” value in data set [5] (in words) is reported as “prolonged duration; also recorded: highly prolonged hypotensive activity”. Moreover, the “Duration of hypotensive action (active period) relative to SKF-24260” value in data set [5] (spontaneously hypertensive rats) was “approximately 3 times”. This molecule also showed an LD50 in data set [6] of 93 mg/kg. The Toxicity entry with white mice [7] was “low toxicity”. The “Toxicity compared with SKF-24260” value in the data set with white mice [7] (intraperitoneal, mice) is on record as “considerably lower; also recorded: considerably less toxic”. Besides, the results for the Effective period in the data set on coronary blood flow [1] (0.05 mg/kg) and in the data set on coronary blood flow [1] (0.1 mg/kg) were 30 min and 65 min, respectively. For the same molecule, the figures for the “Increase in coronary blood flow” value in the data set on coronary blood flow [1] (0.05 mg/kg) and in the data set on coronary blood flow [1] (0.1 mg/kg) were 103% and 150%, respectively. The Coronarodilating effect entry in the data set on coronary blood flow [1] (in words) is on record as “pronounced coronarodilatory action; also recorded: capable of producing a coronarodilating effect”. For the same molecule, in the data set with coronary blood flow [1] (in words), the “Coronarodilating effect compared with Adalate” value was “comparable with that of Adalate; also recorded: comparable with the coronarodilatory action of Adalate”. In addition, in “Light stability”, the Sensitivity to light entry is “light-resistant”. For the same molecule, the “Solubility in organic solvents” value in “Solubility” (organic solvents) is listed as “soluble in organic solvents”. Moreover, the Solubility in water entry in “Solubility” (water) is “insoluble in water”.
On to `CCOC(=O)C1=C(C)NC(C)=C(C(=O)OCC)C1c1ccccc1C(F)(F)F` [SKF-24260, 2,6-dimethyl-3,5-dicarbothoxy-4-(o-trifluoromethylphenyl)-1,4-dihydropyridine, reference compound], for which the ED30 in data set [4] is 0.022 mg/kg. The “Systolic arterial pressure after 24 hours” value in data set [5] (10 mg/kg, 24 hours, result in words) was “return to the initial value or increase above the initial level; also recorded: Initial”. Moreover, the “Hypotensive effect, %” value in [5] (after 6 hours, 1 mg/kg) is listed as 6.0%. Besides, in data set [5] (after 6 hours, 10 mg/kg), the “Hypotensive effect, %” value was 15.8%. The same molecule came in with an LD50 in data set [6] of 38.5 mg/kg. For the same molecule, in data set [8], the “Duration of hypotensive effect” value was “short duration” and the Hypotensive activity entry is “appreciable hypotensive activity”. Further, the Toxicity result with white mice [9] is reported as “high toxicity”.

(Values after patent US4435574A, “2,6-Dimethyl-3,5-dicarbomethoxy-4-(ortho -di-fluoromethylthiophenyl)-1,4-dihydropyridine” (priority 1981, dated 1984).)
